Active and inactive are the calls of the source. How the calls were made is not given here.
Experiment: mitochondrial fusion inhibitors, confirmation, cell-based, chemical genetic, wild-type and mutant (AID 1361)
Settings: Cell-based mitochondrial fusion phenotype, imaging
[1] = mutant cells, measured here: mutant cell line IC50

Compound | IC50 (WT cells) | IC50 [1] [µM]
COCC(C)NC(=O)c1cc(-c2cccc(OC)c2)on1 (centres undefined) | > 25 µM (inactive) | > 25
Cc1ccc(N(CC(O)Cn2c3ccccc3c3ccccc32)S(C)(=O)=O)c(C)c1 (centres undefined) | 18.8 µM | > 25
O=C(CSCc1cccc(Cl)c1)Nc1ccccc1-c1ccccc1 | 12.1 µM | > 25
Cc1ccc(C(=O)Nc2cc(Cl)ccc2N2CCCCC2)s1 | 7.64 µM | > 25
CCCCc1cc2c(s1)CCCC/C2=N/O | > 25 µM (inactive) | > 25
CC1CCCN(C(=O)N2c3ccccc3Sc3ccccc32)C1 (centres undefined) | 18.8 µM | > 25
COc1cc(Nc2nc(-c3ccccc3)c3cc(C)ccc3n2)cc(OC)c1OC | 10.6 µM | > 25
Cn1c(/C=C/N2CCOCC2)c(C(=O)c2ccc(Br)cc2)c(=O)n(C)c1=O | > 25 µM (inactive) | > 25
COC(=O)CN(c1ccc2c(c1)OCCO2)S(=O)(=O)c1ccccc1 | > 25 µM (inactive) | > 25
O=c1ccccn1Cc1c(Cl)cccc1Cl | > 25 µM (inactive) | > 25
O=C(OCc1nnc(-c2ccccc2)o1)C12CC3CC(CC(Br)(C3)C1)C2 | 24.1 µM | > 25
Oc1cccc(C(O)CNCc2ccc(OCc3ccc(Cl)cc3Cl)cc2)c1 (centres undefined) | 15 µM | 17.2
C=CCOc1ccc2ccccc2c1CNCCCN1CCOCC1 | > 25 µM (inactive) | > 25
CCCCc1nc2ccccc2c(=O)n1-c1ccc(Cl)cc1[N+](=O)[O-] | > 25 µM (inactive) | > 25
Cn1c(=O)c(NC2CCCCC2)c2c3c(cccc31)C(=O)c1ccccc1-2 | 11 µM | 21.1
Cc1cccc(NC(=S)N/N=C/c2ccc3c(c2)OCO3)c1 | > 25 µM (inactive) | > 25
CC(NC(c1ccccc1)c1ccccc1)C(=O)N1CCCc2ccccc21 (centres undefined) | 19.9 µM (inactive) | > 12.5
O=C(Nc1ccc(Cl)cc1)N1CCN(c2ccc3nnc(-c4ccc(F)cc4)n3n2)CC1 | > 25 µM (inactive) | > 25
Cc1ccc(C(=O)NC(=S)/C=C2\N(C)c3ccccc3C2(C)C)cc1 | 12 µM | > 25
O=C(CN1CCc2ccccc2C1)Nc1ccccc1N1CCCCCC1 | 10.3 µM | > 25
CCc1nnc(NC(=O)C2Cc3ccccc3CN2S(=O)(=O)c2ccc(C)cc2)s1 (centres undefined) | > 25 µM (inactive) | > 25

Compound | IC50 (WT cells) | IC50 [1] [µM]
COC(=O)CNC(=O)CNC(=O)c1nn(-c2ccc(OC)c(Cl)c2)c(=O)c2ccccc12 | > 25 µM (inactive) | > 25
CC(C)C(=O)N1CCC(CN=Cc2c(O)n(C3CCCCC3)c(=O)n(C3CCCCC3)c2=O)CC1 | 23 µM | > 25
CCCCSc1cnn(-c2ccccc2)c(=O)c1SCCCC | 12.7 µM | > 25
CCOC(=O)C1=C(C)N=C2SCCC(=O)N2C1c1sccc1C (centres undefined) | > 25 µM (inactive) | > 25
COCCCNC(=O)CS(=O)(=O)Cc1nc(-c2cccc(OC)c2)oc1C | > 25 µM (inactive) | > 25
CCc1ccccc1N(CC)C(=O)CCc1nc(-c2ccc(C)cc2)no1 | 19.6 µM | 23.2
COc1ccc(C2CC(c3ccc(Br)cc3)=NN2C(=O)c2cccnc2)cc1 (centres undefined) | 18.2 µM | > 25
Cc1cc(C)nc(N2CCCC(C(=O)NCc3cccs3)C2)n1 (centres undefined) | > 25 µM (inactive) | > 25
O=c1c2c3c(sc2nc(NCCO)n1CCc1ccccc1)CCCCC3 | 22.3 µM | > 25
FC(F)(F)c1cc(-c2ccccc2)nc(NCc2cccs2)n1 | 18.8 µM | > 25
CC(C)N=c1scc(-c2cccs2)n1/N=C/c1ccc(O)c(O)c1O | > 25 µM (inactive) | > 25
CC12CCC3C(CC=C4CC(O)CCC43C)C1C/C(=C\c1ccccc1F)C2=O (centres undefined) | 9.36 µM | > 25
O=C(NCc1ccco1)c1cccnc1-c1nc2ccccc2s1 | > 25 µM (inactive) | > 25
COc1ccc(C2C(C#N)=C(SC)NC3=C2C(=O)CC(C)(C)C3)cc1 (centres undefined) | > 25 µM (inactive) | > 25
COc1cc(SC)ccc1C(=O)NCC1CCCO1 (centres undefined) | > 25 µM (inactive) | > 25
CCCCC(=O)O[C@H]1CC[C@H]2[C@@H]3CCc4cc(O)ccc4[C@H]3CC[C@]12C | 12.3 µM | > 25
c1ccc2c(c1)sc1nnnn12 | > 25 µM (inactive) | > 25
CCN(Cc1ccccc1)C(c1ccc(C(F)(F)F)cc1)c1nnnn1C(C)(C)C (centres undefined) | 8.69 µM | > 25
CCCNC(=S)Nc1ccc2nc(-c3ccccn3)c(-c3ccccn3)nc2c1 | > 25 µM (inactive) | > 25
COc1ccccc1CNC(=O)c1ccc(-c2ccccc2C(F)(F)F)o1 | 21.3 µM | > 25
Cc1ccc(O)c(C(=O)/C=C/c2ccc3c(c2)OCCCO3)c1 | 12.3 µM | > 25
